Series [1] in a line: Sono-activation (sono-induced reduction) of complex 1 in PBS, HPLC. It is filed as physicochemical. The following applies: 4 W. How it is done:
The sono-activation property of complex 1 was investigated. A PBS solution (with 1% DMF) containing 10 μM complex 1 with or without 5 mM sodium ascorbate (i.e. the sample), was continuously treated with ultrasound (1.75 MHz, 4 W) for a total period of time of 60 min. The sample temperature was monitored with an FLIR thermographic camera and maintained at 37° C. throughout the experiment. […] (FIGS. 6C to 6E), indicating the reduction of Pt(IV) to Pt(II) along with the dissociation of the axial ligand 1 and hydroxide ligand upon sono-activation (i.e. complex 1 undergoes a sono-induced reduction).

Series [2] deals with different cancer cell lines (MCF-7, HeLa, 4T1, A549, A549cisR, A2780, A2780cisR). Description: Cytotoxicity, MTT assay, all tested cancer cell lines (FIG. 9). It is filed as cell-based. As to the method: (§1) The biological activity of complex 1 was evaluated. Human breast carcinoma MCF-7 cells, human cervix carcinoma HeLa cells, mammary breast carcinoma 4T1 cells, human lung carcinoma A549 cells, and cisplatin-resistant A549cisR cells were cultured in DMEM containing 10% FBS and 100 IU mL^−1 penicillin/streptomycin. Human ovarian carcinoma A2780 and A2780cisR cells were cultured in RPMI-1640 containing 10% FBS, 2 mM L-glutamine, and 100 IU mL^−1 penicillin/streptomycin. Human lung fibroblast MRC-5 cells were cultured in MEM containing 10% FBS, 1% NEAA, 1% L-Glutamine, 1% sodium pyruvate, and 100 IU mL^−1 penicillin/streptomycin. In every two passages of A2780cisR and A549cisR cells, 5 μM of cisplatin was added to maintain the platinum resistance. All the cells were cultured in humidified incubators at 37° C. with 5% CO2. Cell counting was performed with a hemocytometer. Cytotoxicity test was performed by exposing the cancer cells with complex 1. The viability of cancer cells exposed was evaluated by means of MTT assay. Specifically, the cells were first pre-seeded in 6-well plates until the confluency reached 80%. Then, the medium was removed and replaced with fresh medium containing different concentrations of complex 1 with 0.5% DMF (0, 2.5, 5, 12.5, 25, or 40 μM). After 30 min, the medium was aspirated, the well was washed with PBS for three times. […]

Series [3] in a line: Photo-activation of complex 1 by 808 nm laser, HPLC. The following applies: 10 μM in PBS (1% DMF), 5 mM ascorbate, laser 808 nm, 3.3 mW/cm^2, 15 min. It is filed as physicochemical. As to the method: The inventors have further investigated if complex 1 could be activated by other types of radiation such as EM radiation, in particular light such as infrared light. A PBS buffer solution (with 1% DMF) containing 10 μM complex 1 with 5 mM ascorbate in a quartz cuvette was irradiated with a laser (808 nm, 3.3 mW/cm^2) for 15 min under stirring. The sample was analysed by HPLC. […] In view of the similar profiles, the inventors believe that complex 1 would also release singlet oxygen upon photo-activation along with the aforementioned photo-induced reduction.

Another series concerns HeLa cells. Briefly: Cytotoxicity, MTT assay, HeLa cells. It is filed as cell-based, human. The following applies: IC50 without vs with radiation. How it is done:
as §1

A short description of series [4]: Stability of complex 1 in the dark (HPLC). It is filed as physicochemical. The following applies: 10 μM, PBS pH 7.4, RPMI-1640 culture medium and A2780 cell lysate, no radiation. As to the method:
The stability of complex 1, i.e., complex 1 in phosphate buffer saline (PBS) buffer, cell culture medium such as RPMI-1640, and cell lysate in the dark (i.e., in the absence of radiation) was determined. To determine the stability of complex 1 in PBS, complex 1 (10 μM) was dissolved in PBS buffer (pH 7.4, 1% DMF) and incubated at 310 K in the dark. At 24 h, the sample was analyzed by HPLC to determine the percentage of Pt(IV) remained. To determine the stability of complex 1 in complete RPMI-1640 culture medium (containing 10% FBS, 2 mM L-Glutamine, and 100 IU mL^−1 penicillin/streptomycin) or cell lysate (from A2780 cells by 1% triton X-100 lysis, protein concentration adjusted to 1.5 mg mL^−1), complex 1 was dissolved in these two solutions, respectively (with 1% DMF). At determined time intervals, 50 μL of samples were taken out and diluted with 200 μL MeOH with subsequent centrifugation at 14,000×g to remove proteins, and then the supernatant was analyzed by HPLC.

Series [5] deals with Human lung fibroblast MRC-5 cells. Briefly: Cell viability of normal MRC-5 cells (FIG. 10). The following applies: absence of ultrasound, 24 h. It is filed as cell-based. As to the method:
as §1

The structures appear in SMILES notation.

With `CCCN1/C(=C/C=C2\CCCC(/C=C/C3=[N+](CCC)c4ccccc4C3(C)C)=C2Oc2ccc(CCC(=O)[O][Pt]3([NH2])([NH2])([OH])[O]C(=O)C4(CCC4)C(=O)[O]3)cc2)C(C)(C)c2ccccc21` [complex 1, cyaninplatin], the “complex 1 reduced (to Pt(II)) after sono-activation” value in series [1] (10 μM in PBS (1% DMF), 5 mM ascorbate, ultrasound 1.75 MHz, about 60 min, 37° C.) is “about 95%”. For the same compound, the “conditions required for sono-induced reduction” value in series [1] (10 μM in PBS, with or without 5 mM ascorbate, with or without ultrasound 1.75 MHz) was “only occurs under the condition where both ascorbate and ultrasound are present”. Further, the “activity on tested cells upon ultrasound treatment” value in series [2] (ultrasound 3.5 W, 15 min) is given as “very active”. Also, the “toxicity to tested cells without ultrasound treatment” value in series [2] (without the ultrasound treatment) is reported as “generally non-toxic”. For the same compound, the “photo-activation / photo-induced reduction to Pt(II) complex” value in series [3] was “can be photo-activated”. Moreover, the “enhancement of cytotoxicity upon exposure to radiation” value with HeLa cells is recorded as “about 6 times”. The “time complex is stable in the dark (single HPLC peak)” value in series [4] was not below 6 h. In series [5], the “toxicity to normal MRC-5 cells” value is recorded as “non-toxic”.
